# Measurements taken from BindingDB's records for doi:10.1016/S0960-894X(00)80062-1 (1994).
# Biological target: Squalene synthase (Candida albicans)
# Assay: In vitro inhibitory activity against Candida albicans squalene synthase
smiles,measurement,value
"C=C(CCC12CCC(C(=O)O)(O1)C(O)(C(=O)O)C(C(=O)O)O2)[C@@H](OC(C)=O)[C@H](C)Cc1ccccc1 (stereo partly drawn) [1-((4S,5R)-4-Acetoxy-5-methyl-3-methylene-6-phenyl-hexyl)-4-hydroxy-2,8-dioxa-bicyclo[3.2.1]octane-3,4,5-tricarboxylic acid]",IC50,430 nM
